We go through 13 compounds from paper PMC10770013, “Antiproliferative polyketides from fungus Xylaria cf. Longipes SWUF08-81 in different culture media” (Natural Products and Bioprospecting, 2024).

The test system of one data set is HCT116. Put plainly: MTT assay, antiproliferative activity against HCT116. Type of data set: cell-based, human. To be noted: for IC50: Homo sapiens, HCT-116, MTT, 72 h, triplicate, mean ± SD; for toxicity in words, HCT116: MTT assay. Here is the method:
(§1) The antiproliferative activity was evaluated by MTT (3-(4,5-dimethylthiazol-2-yl)-2,5-diphenyl tetrazolium bromide) assay. Four cancer cell lines; human cervical carcinoma (HeLa), human colon carcinoma (HT29 and HCT116) and human breast carcinoma (MCF-7), along with African green monkey kidney cells (Vero cells) were seeded in 96-well plates (8000 cells/well) and cultured for 24 h, followed by being treated with the selected compounds at 100 µg/mL for 72 h. Following this, 10 μL of MTT reagent (5 mg/mL in phosphate buffer solution (PBS)) was added to each well and further incubated at 37 °C for 2 h. Then, 100 μL of DMSO (dimethyl sulfoxide) was used to dissolve the formazan dye. Finally, the absorbance of the solution was measured using a microplate reader (Bio-Rad Laboratories, Hercules, CA) at wavelengths of 550 and 655 nm. The absorbance at 655 nm was used as a reference wavelength. […] Cisplatin was used as the positive control drug.
On the technique in general: Tetrazolium dyes change colour on reduction, which living cells bring about.

Another data set concerns HT29. Put plainly: MTT assay, antiproliferative activity against HT29. It counts as cell-based, human. The note with it: for IC50: Homo sapiens, HT-29; for toxicity in words, HT29: MTT assay. Here is the method: as §1
For data set [1], the system named is cancer cell lines (HCT116, HT29, MCF-7 and HeLa). Description: MTT assay, all four cancer cell lines together. It counts as cell-based, human. The protocol:
as §1

The next data set deals with MCF-7. Description: MTT assay, antiproliferative activity against MCF-7. Type of data set: cell-based, human. To be noted: triplicate, mean ± SD; for IC50: Homo sapiens, MCF7, 72 h. Here is the method:
as §1

For a further data set, the system named is Vero cells. Description: MTT assay, antiproliferative activity against Vero cells. It counts as cell-based, African green monkey. To be noted: Chlorocebus sabaeus, 72 h, triplicate, mean ± SD, normal cells. Here is the method: as §1
For the next data set, the system named is HeLa. Description: MTT assay, antiproliferative activity against HeLa. Type of data set: cell-based, human. To be noted: for IC50: Homo sapiens, HeLa; for toxicity in words, HeLa: MTT assay. Here is the method:
as §1

Data set [2] relates to HCT116, HT29, MCF-7, HeLa and Vero cells. Put plainly: MTT assay, all cancer cells and normal cells together. Type of data set: cell-based. The protocol:
as §1

[3] abbreviates: MTT, 72 h, triplicate, mean ± SD.

SMILES strings stand for the structures. In brackets after ≈: the same amount, converted by molar mass. Entries after “also recorded” stand apart in the source; their conditions may differ.

As usually defined, the IC50 is the concentration that gives 50% inhibition. For the compound `C[C@H]1CCC[C@H](C[C@H]2Cc3cc(O)cc(O)c3C(=O)O2)O1` [Compound 18, asperentin], the IC50 with HCT116 was 2.42 ± 0.2 µg/mL (≈ 8.28 µM); in the data set with HT29 (setting [3]), 4.51 ± 0.13 µg/mL (≈ 15.4 µM); in the data set on MCF-7 it was 10.1 ± 0.52 µg/mL (≈ 34.5 µM); with Vero cells it was 8.77 ± 0.91 µg/mL (≈ 30 µM); in the data set on HeLa (setting [3]), 2.09 ± 0.16 µg/mL (≈ 7.15 µM); in data set [2] (range over HCT116, HT29, MCF-7, HeLa and Vero cells, read-out: IC50 range against all cancer cells and normal cells), 2.09 to 10.1 µg/mL (≈ 7.15 to 34.5 µM). In data set [1], the “antiproliferative activity in words, all cancer cells” value was “significantly toxic”. The “antiproliferative activity in words, all cancer cells and normal cells” value in data set [2] (MTT assay) is “strong broad spectrum”.

For `COc1cc2oc3cc(O)cc(O)c3c2c(C)c1O` [Compound 1, 1,3,8-trihydroxy-7-methoxy-9-methyldibenzofuran], the IC50 was found to be 14.4 ± 0.87 µg/mL (≈ 55.2 µM) in the data set with HCT116; 8.99 ± 1.96 µg/mL (≈ 34.5 µM) in the data set on HT29 (setting [3]); 18.4 ± 0.99 µg/mL (≈ 70.7 µM) in the data set on MCF-7; 25 ± 0.63 µg/mL (≈ 96.1 µM) in the data set with Vero cells; 16.7 ± 0.55 µg/mL (≈ 64.1 µM) with HeLa (setting [3]). The “antiproliferative activity in words, all cancer cells” value in data set [1] is “moderate anti-proliferation”.

For the compound `C[C@@H]1O[C@@H](C[C@H]2Cc3cc(O)cc(O)c3C(=O)O2)CC[C@@H]1O` [Compound 21, 5′-hydroxyasperentin], the IC50 in the data set on HCT116, with HT29 (setting [3]), with MCF-7, in the data set on Vero cells and with HeLa (setting [3]) was more than 100 µg/mL each time.

For `COc1cc(O)c2c(c1)C[C@H](C[C@H]1CCC[C@H](C)O1)OC2=O` [Compound 20, asperentin-6-O-methylether], the 50% inhibitory concentration (IC50) in the data set on HCT116 was 8.69 ± 0.69 µg/mL (≈ 28.4 µM); with HT29 (setting [3]), 33.3 ± 4.42 µg/mL (≈ 109 µM); with MCF-7 it was 11.7 ± 0.82 µg/mL (≈ 38.2 µM); in the data set with Vero cells, more than 100 µg/mL; in the data set with HeLa (setting [3]) it was 4.98 ± 0.4 µg/mL (≈ 16.3 µM). Further, in data set [1], the “antiproliferative activity in words, all cancer cells” value is “significantly toxic; also recorded: moderate anti-proliferation”.

Take `COC(=O)c1ccc(O)c2c1C[C@@H](C)OC2=O` [Compound 4, (-)-5-methoxycarbonylmellein]: the IC50 in the data set with HCT116, in the data set with HT29 (setting [3]), in the data set on MCF-7, in the data set with Vero cells and with HeLa (setting [3]) was more than 100 µg/mL in each case.

Turning to `COc1cc(O)cc2c1C(=O)O[C@@H](C[C@H]1CCC[C@H](C)O1)C2` [Compound 19, asperentin-8-O-methylether], the IC50 in the data set with HCT116 was 66.5 ± 7.68 µg/mL (≈ 217 µM); in the data set on HT29 (setting [3]) it was more than 100 µg/mL; in the data set on MCF-7, more than 100 µg/mL; in the data set with Vero cells, more than 100 µg/mL; with HeLa (setting [3]), more than 100 µg/mL.

Take `C[C@@H]1Cc2c(C(=O)O)ccc(O)c2C(=O)O1` [Compound 5, (−)-5-carboxymellein]: the IC50 was 54.9 ± 3.35 µg/mL (≈ 247 µM) in the data set on HCT116; 72.6 ± 2 µg/mL (≈ 327 µM) in the data set with HT29 (setting [3]); more than 100 µg/mL in the data set on MCF-7; more than 100 µg/mL in the data set with Vero cells; 57.8 ± 1.26 µg/mL (≈ 260 µM) in the data set on HeLa (setting [3]). For the same compound, the “toxicity in words, HCT116” value in the data set on HCT116 was “slightly toxic”. In addition, the “toxicity in words, HT29” value in the data set with HT29 was “slightly toxic”. Further, the “toxicity in words, HeLa” value with HeLa was “slightly toxic”.

As for `N.N.[Cl][Pt][Cl]` [Cisplatin, reference compound], the “Antiproliferative activity, IC50 ± SD, HT29” value with HT29 (setting [3]) was found to be 1.59 ± 0.07 µg/mL. In addition, the “Antiproliferative activity, IC50 ± SD, MCF-7” value in the data set on MCF-7 (72 h) stood at 3.13 ± 0.26 µg/mL. Moreover, the “Antiproliferative activity, IC50 ± SD, HeLa” value in the data set on HeLa (setting [3]) came out at 1.93 ± 0.04 µg/mL.

Regarding `COc1cc(O)cc2c1C(=O)O[C@H](C[C@H]1CCC[C@@H](C)O1)C2` [Compound 15, (3S,2′R,6′R)-asperentin-8-O-methylether], the IC50 in the data set with HCT116 was 45.1 ± 3.65 µg/mL (≈ 147 µM); in the data set with HT29 (setting [3]), 67.6 ± 6.99 µg/mL (≈ 221 µM); in the data set with MCF-7, more than 100 µg/mL; in the data set on Vero cells it was more than 100 µg/mL; in the data set with HeLa (setting [3]), 92.9 ± 2.7 µg/mL (≈ 303 µM). Moreover, the “toxicity in words, HCT116” value in the data set with HCT116 is recorded as “slightly toxic”. Moreover, the “toxicity in words, HT29” value in the data set on HT29 is “slightly toxic”. In the data set with HeLa, the “toxicity in words, HeLa” value is listed as “slightly toxic”.

As a reminder, the melting point is the temperature, or range, at which the solid turns liquid. Take `COC(=O)c1cc(OC)c(O)c2c1C[C@@H](C)OC2=O` [Compound 2, (3R)-7-methoxy-5-methoxycarbonylmellein]: the melting point fell in the range of 135 to 136 °C. The compound further registered an IC50 in the data set on HCT116 of 92.9 ± 2.7 µg/mL (≈ 349 µM). Further, half-maximal inhibition in the data set with HT29 (setting [3]) (IC50) required 96.4 ± 3.37 µg/mL (≈ 362 µM). In the data set on MCF-7, this compound gave an IC50 of more than 100 µg/mL. In the data set with Vero cells, this compound registered an IC50 of more than 100 µg/mL. The compound further gave an IC50 with HeLa (setting [3]) of more than 100 µg/mL.

As for `C[C@@H]1Cc2cccc(O)c2C(=O)O1` [Compound 3, (−)-mellein], the IC50 in the data set on HCT116, in the data set with HT29 (setting [3]), in the data set on MCF-7, in the data set on Vero cells and in the data set on HeLa (setting [3]) was more than 100 µg/mL in each case.

On to `C[C@H]1C[C@@H](O)C[C@H](C[C@H]2Cc3cc(O)cc(O)c3C(=O)O2)O1` [Compound 22, 4′-hydroxyasperentin], for which the IC50 with HCT116, with HT29 (setting [3]), in the data set with MCF-7, in the data set with Vero cells and in the data set on HeLa (setting [3]) was more than 100 µg/mL throughout.

On to `C[C@H]1CCC[C@H](Cc2cc(O)cc(O)c2)O1` [Compound 17, (2′R,6′S)-5-((-6-methyltetrahydro-2H-pyran-2-yl)methyl)benzene-1,3-diol], for which the IC50 is 17.5 ± 1.29 µg/mL (≈ 78.7 µM) in the data set on HCT116; 19.5 ± 0.77 µg/mL (≈ 87.7 µM) with HT29 (setting [3]); 50.2 ± 3.85 µg/mL (≈ 226 µM) in the data set with MCF-7; more than 100 µg/mL with Vero cells; 13.5 ± 1.15 µg/mL (≈ 60.9 µM) with HeLa (setting [3]). Also, the “antiproliferative activity in words, all cancer cells” value in data set [1] is listed as “moderate anti-proliferation”.
